A word on the koff: it is the first-order rate constant of dissociation. One may read the kon as the second-order rate constant of association. Broadly, the Kd is a measure of binding affinity in units of concentration. A low value points to tighter binding.

The record followed here is article PMC7768756, “BAM1/2 receptor kinase signaling drives CLE peptide-mediated formative cell divisions in Arabidopsis roots” (Proceedings of the National Academy of Sciences of the …, 2020).

Like-named read-outs stand apart in the source and are kept apart here. Non-standard residues stand in square brackets, D forms with d. Residues, ends and D or L forms follow the SMILES beside them. No end group written: not given here. Hyp = O=C(O)[C@@H]1C[C@@H](O)CN1

In one experiment the test system is CYCD6;1 expression. Nature of the experiment: CYCLIND6;1p::GFP reporter expression in roots after exogenous CLE peptide treatment. To be noted: Col-0 roots; 0.1 μM CLEp for 48 h from 3 dag, imaged 5 dag. It counts as in vivo, Arabidopsis. The protocol: Seeds were surface sterilized with 70% ethanol and 0.1% Triton X-100 for 10 min, rinsed three times with 70% ethanol, and plated onto 0.5× Murashige and Skoog (MS) (pH 5.7) (Research Products International) with 8 g/L Phytoagar (Research Products International) and stratified at 4 °C for 2 d. Following stratification, seeds were germinated in a continuous light growth chamber at 22 °C to 24 °C. For peptide-treated plants, sterilized seeds were stratified and germinated on 0.5× MS plates. At 3 d after germination (dag), seedlings were transferred to either 0.5× MS plates or 0.5× MS plates supplemented with 0.1 μM CLEp for 48 h. Roots were imaged 5 dag as described in the figure legends. All synthetic peptides (>90% purity, Biomatik) (SI Appendix, Table S1) were dissolved in sterile dH2O as recommended. For treatment with dexamethasone (Dex; Sigma), seedlings were stratified and germinated on 0.5× MS plates supplemented with 10 μM Dex for 3 d before imaging.
Laser scanning confocal microscopy of roots was performed using either a C-Apochromat 40×/1.20 W Korr objective on a Zeiss laser scanning microscopy (LSM) 710 or an EC Plan-Neofluar 40×/1.30 oil differential interference contrast (DIC) M27 objective on a Zeiss LSM 880. Roots were examined by staining with 10 μM propidium iodide (PI) (Sigma-Aldrich). For images in Figs. 2B and 4 A and C and SI Appendix, Figs. S1D and S2B, seedlings were fixed in 4% paraformaldehyde in phosphate-buffered saline (PBS) for 45 min, rinsed in PBS, and cleared in ClearSee solution ([38]) overnight. Fixed seedlings were incubated in 0.2% Calcofluor white (Sigma-Aldrich) for 30 min and transferred to fresh ClearSee solution 2 to 24 h before imaging. Laser line excitations and emissions are as follows: Calcofluor white (405 nm; 410 to 551 nm), GFP (488 nm; 492 to 551 nm), YFP (514 nm; 519 to 564 nm), mCherry (561 nm; 566 to 606 nm), and PI (561 nm; 566 to 682 nm). Histological sectioning of Col-0 and bam1/2/3 roots 6 dag were prepared as previously described ([39]).

For experiment [1], the target named is T1, BAM1 extracellular domain (Arabidopsis thaliana, UniProt O49545).
T1 construct: Drosophila BiP secretion signal peptide (N); StrepII (C, cleaved yes); 10xHis (C, cleaved yes); made in house; host or cells: Trichoplusia ni (strain Tnao38) insect cells, baculovirus (modified pFastBac)
T1 sequence (O49545 20-637): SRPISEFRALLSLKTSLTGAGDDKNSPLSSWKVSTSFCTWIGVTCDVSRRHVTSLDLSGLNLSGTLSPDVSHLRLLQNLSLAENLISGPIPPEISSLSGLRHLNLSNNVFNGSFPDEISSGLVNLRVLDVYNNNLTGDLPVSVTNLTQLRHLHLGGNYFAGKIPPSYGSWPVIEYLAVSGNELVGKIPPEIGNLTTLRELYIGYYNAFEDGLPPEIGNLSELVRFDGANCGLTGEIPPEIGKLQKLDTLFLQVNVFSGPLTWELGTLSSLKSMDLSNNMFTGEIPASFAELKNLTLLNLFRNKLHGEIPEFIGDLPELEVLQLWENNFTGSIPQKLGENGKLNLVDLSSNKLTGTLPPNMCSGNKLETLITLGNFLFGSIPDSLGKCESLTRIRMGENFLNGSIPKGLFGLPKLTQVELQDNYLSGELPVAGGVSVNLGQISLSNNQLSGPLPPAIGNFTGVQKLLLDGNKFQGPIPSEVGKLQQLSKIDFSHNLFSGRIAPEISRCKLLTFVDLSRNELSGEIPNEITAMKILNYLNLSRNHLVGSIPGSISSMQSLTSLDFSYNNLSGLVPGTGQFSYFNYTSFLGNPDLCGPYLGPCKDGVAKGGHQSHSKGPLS
The experiment is described as follows: Grating-coupled interferometry (GCI) binding kinetics of CLE peptides versus the BAM1 ectodomain. To be noted: for koff: pH 5, read-out: koff, dissociation rate constant; for kon: pH 5, read-out: kon, association rate constant. The source says: The coding sequence of BAM1 (residues 20 to 637) was synthesized (GeneArt) with codons optimized for expression in Trichoplusia ni and cloned in a modified pFastBac vector (Geneva Biotech), harboring the Drosophila BiP secretion signal peptide and a TEV (tobacco etch virus protease) cleavable C-terminal StrepII, 10× His tag and a noncleavable Avi-tag ([41], [42]). T. ni (strain Tnao38) ([43]) cells were infected with a multiplicity of infection (MOI) of 1 at a density of 2 × 10^6 cells mL^−1 and incubated 26 h at 28 °C and 48 h at 22 °C. The secreted protein was purified from the supernatant by Ni^2+ (HisTrap Excel; GE Healthcare; equilibrated in 50 mM KPi pH 7.6, 250 mM NaCl, 1 mM 2-mercaptoethanol) and StrepII (Strep-Tactin XT Superflow high affinity chromatography: IBA; equilibrated in 20 mM Tris pH 8.0, 250 mM NaCl, 1 mM ethylenediaminetetraacetic acid) affinity chromatography. The tag was cleaved with His-tagged TEV protease at 4 °C overnight and removed by Ni^2+ affinity chromatography. Proteins were then further purified by size-exclusion chromatography on a Superdex 200 increase 10/300 GL column (GE Healthcare), equilibrated in 20 mM sodium citrate pH 5.0, 250 mM NaCl.
BAM1 protein (20 µM) was biotinylated with biotin ligase BirA (2 µM) ([42]) for 1 h at 25 °C, in a volume of 200 µL; 25 mM Tris pH 8, 150 mM NaCl, 5 mM MgCl2, 2 mM 2-mercaptoethanol, 0.15 mM biotin, 2 mM ATP, and followed by size-exclusion chromatography to purify the biotinylated protein.
Grating-coupled interferometry (GCI) experiments were derived by the Creoptix WAVE system (Creoptix). All experiments were performed on 4PCP WAVE chips (quasiplanar polycarboxylate surface; Creoptix). Borate buffer (100 mM sodium borate pH 9.0, 1 M NaCl; Xantec) was used for chip conditioning and streptavidin (Sigma) was immobilized on the chip surface with standard amine coupling; 7 min activation [1:1 mix of 400 mM N-(3-dimethylaminopropyl)-N′-ethylcarbodiimide hydrochloride and 100 mM N-hydroxysuccinimide] (Xantec), followed by injection of streptavidin (30 µg mL^−1) in 10 mM sodium acetate pH 5.0 (Sigma) until the desired density was reached, passivation of the surface (0.5% bovine serum albumin [Roche] in 10 mM sodium acetate pH 5.0) and final quenching with 1 M ethanolamine pH 8.0 for 7 min (Xantec). Then, biotinylated BAM1 (80 µg mL^−1) was captured on the chip surface. All kinetic analyses were performed at 25 °C with a 1:2 dilution series from 100 nM for CLE9 or 10 µM for the other peptides in 20 mM citrate pH 5.0, 250 mM NaCl, 0.01% Tween 20. Blank injections were used for double referencing and a dimethyl sulfoxide (DMSO) calibration curve for bulk correction. Analysis and correction of the obtained data were performed using the Creoptix WAVE control software (correction applied: X and Y offset; DMSO calibration; double referencing). Mass transport binding models with bulk correction were used to fit all experiments.

Experiment [2] concerns the target T2, BAM1 extracellular domain (BARELY ANY MERISTEM1 receptor kinase, residues 20 to 637) (Arabidopsis, UniProt O49545 20-637, biotin (by biotin ligase BirA)).
T2 chain: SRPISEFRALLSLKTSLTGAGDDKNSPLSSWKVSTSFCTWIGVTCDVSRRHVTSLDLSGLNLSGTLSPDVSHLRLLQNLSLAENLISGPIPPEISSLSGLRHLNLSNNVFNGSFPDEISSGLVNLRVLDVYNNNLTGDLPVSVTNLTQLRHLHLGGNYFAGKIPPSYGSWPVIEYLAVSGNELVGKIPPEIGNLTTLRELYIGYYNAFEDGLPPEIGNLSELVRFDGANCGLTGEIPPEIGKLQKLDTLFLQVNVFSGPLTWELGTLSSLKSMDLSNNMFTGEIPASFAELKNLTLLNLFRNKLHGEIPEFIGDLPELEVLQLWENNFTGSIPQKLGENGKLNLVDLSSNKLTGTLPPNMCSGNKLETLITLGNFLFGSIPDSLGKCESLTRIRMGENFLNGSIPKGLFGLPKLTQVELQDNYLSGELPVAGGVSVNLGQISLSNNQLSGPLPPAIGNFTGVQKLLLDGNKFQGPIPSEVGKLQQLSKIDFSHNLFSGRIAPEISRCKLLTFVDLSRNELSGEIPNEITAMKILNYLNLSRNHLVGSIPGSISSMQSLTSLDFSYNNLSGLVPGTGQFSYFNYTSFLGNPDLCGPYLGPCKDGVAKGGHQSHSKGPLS

For experiment [3], the target named is T3, BAM1 extracellular domain (BARELY ANY MERISTEM1 receptor kinase, residues 20 to 637) (Arabidopsis, UniProt O49545 20-637, biotin (by biotin ligase BirA)).
T3 construct: synthetic gene, codon-optimised for Trichoplusia ni; Expressed behind the Drosophila BiP secretion signal peptide in a modified pFastBac vector; the StrepII and 10x His tags were removed with TEV protease, the Avi-tag is not cleavable and was used to capture the protein on streptavidin; also called BAM1 ectodomain; biotinylated BAM1; source: Trichoplusia ni (strain Tnao38) cells, secreted, …
T3 sequence (looked up): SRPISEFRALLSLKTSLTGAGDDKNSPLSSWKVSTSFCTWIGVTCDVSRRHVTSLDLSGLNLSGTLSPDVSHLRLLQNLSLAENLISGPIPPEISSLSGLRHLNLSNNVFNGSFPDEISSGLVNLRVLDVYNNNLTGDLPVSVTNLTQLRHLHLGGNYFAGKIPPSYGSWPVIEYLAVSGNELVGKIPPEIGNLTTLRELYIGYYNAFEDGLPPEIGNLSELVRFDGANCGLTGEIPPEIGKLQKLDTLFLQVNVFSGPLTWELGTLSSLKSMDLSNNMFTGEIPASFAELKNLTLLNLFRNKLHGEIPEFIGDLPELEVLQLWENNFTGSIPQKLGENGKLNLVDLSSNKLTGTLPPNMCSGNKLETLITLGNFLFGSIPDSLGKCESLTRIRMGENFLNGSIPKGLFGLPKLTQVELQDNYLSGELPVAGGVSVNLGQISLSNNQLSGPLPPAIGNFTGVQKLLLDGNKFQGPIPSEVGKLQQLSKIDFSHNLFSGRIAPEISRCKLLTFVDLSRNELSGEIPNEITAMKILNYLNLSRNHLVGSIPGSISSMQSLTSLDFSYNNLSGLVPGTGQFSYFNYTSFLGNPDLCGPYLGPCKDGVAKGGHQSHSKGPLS
The experiment is described as follows: grating-coupled interferometry (GCI); biotinylated BAM1 captured on streptavidin on a 4PCP WAVE chip (Creoptix WAVE); peptides as analyte, 1:2 dilution series from 10 µM; 25 °C; 20 mM citrate pH 5.0, 250 mM NaCl, 0.01% Tween 20; one-to-one binding model with mass transport. To be noted: both partners purified.

Consider “RLSPGGPDPRHH [CLE1p, synthesized root expressed CLE dodecapeptide, locus At1g73165]”, for which, in the experiment with CYCD6;1 expression, the “Upregulation of CYCD6 observed? (CYCLIND6;1p::GFP response)” value (from here on “Upregulation of CYCD6 observed?”) is “No”.
Consider `CC(C)C[C@H](NC(=O)[C@@H](N)CCCNC(=N)N)C(=O)N[C@H](C(=O)N1C[C@H](O)C[C@H]1C(=O)N[C@@H](CO)C(=O)NCC(=O)N1C[C@H](O)C[C@H]1C(=O)N[C@@H](CC(N)=O)C(=O)N1CCC[C@H]1C(=O)N[C@@H](CC(C)C)C(=O)N[C@@H](Cc1c[nH]cn1)C(=O)N[C@@H](CC(N)=O)C(=O)O)C(C)C` [CLE9, reference compound] (H-RLV[Hyp]SG[Hyp]NPLHN-OH; N-terminus and C-terminus assumed), for which, in experiment [1], the koff was 0.024 s⁻¹ and the kon worked out at 3.76e+07 M⁻¹ s⁻¹.
For “RRVPSGPNPLHH [CLE12p, synthesized root expressed CLE dodecapeptide, locus At1g68795]”, in the experiment with CYCD6;1 expression, the “Upregulation of CYCD6 observed?” value was “Yes”.
Regarding RLVHTGPNPLHN [CLE16p], in experiment [1], the koff is 1.05 s⁻¹ and the kon came out at 1.51e+08 M⁻¹ s⁻¹.
RLVPSGPNPLHH [CLE13p]: in experiment [1], the koff stood at 0.603 s⁻¹ and the kon is 5.88e+07 M⁻¹ s⁻¹.
The like results for RTVPSGPDPLHH [CLV3, reference compound] were, in that order, 0.549 s⁻¹ and 38200 M⁻¹ s⁻¹.
With “RLSPGGPDPQHH [CLE2p, synthesized root expressed CLE dodecapeptide, locus At4g18510]”, the “Upregulation of CYCD6 observed?” value with CYCD6;1 expression was “No”.
For RTVPSGPDPLHH [CLV3], the Kd in experiment [2] was 14000 nM.

B1: CLE13 dodecapeptide (CLE13p) (peptide, UniProt Q6NMF0 96-107, looked up)
peptide: RLVPSGPNPLHH
modifications: ends and bridges not checked
notes: CLE13p, the active dodecapeptide released from the CLE13 propeptide, Arabidopsis; source: synthetic peptide (>90% purity, Biomatik)
B1 gave a Kd in experiment [3] of 10 nM.
In experiment [2], RLVPSGPNPLHN [CLE9] had a Kd of 0.6 nM.

B2: CLE16 dodecapeptide (CLE16p) (peptide, UniProt Q8S8M2 92-103, looked up)
peptide: RLVHTGPNPLHN
modifications: ends and bridges not checked
notes: CLE16p, the active dodecapeptide released from the CLE16 propeptide, Arabidopsis; source: synthetic peptide (>90% purity, Biomatik)
Take B2: the Kd in experiment [3] stood at 6.9 nM.
